Measured values published in ChEMBL document CHEMBL4334438, “Discovery of novel glycogen synthase kinase-3α inhibitors: Structure-based virtual screening, preliminary SAR and biological evaluation for treatment of acute myeloid leukemia” (Eur J Med Chem, 2019).
pIC50: −log10 of the molar value.

Legend:
[1] = tested on: Glycogen synthase kinase-3 alpha (Homo sapiens), P49840 [UNDEFINED MUTATION]; test: Inhibition of human GSK-3alpha S449A mutant (2 to end residues) at 10 uM using phospho GS2 peptide as substrate after 40 mins in presence of [gamma-33ATP] by scintillation counting method relative to control
Sequence of Glycogen synthase kinase-3 alpha (Homo sapiens), P49840 [UNDEFINED MUTATION] (P49840 whole entry, looked up, stated change not applied): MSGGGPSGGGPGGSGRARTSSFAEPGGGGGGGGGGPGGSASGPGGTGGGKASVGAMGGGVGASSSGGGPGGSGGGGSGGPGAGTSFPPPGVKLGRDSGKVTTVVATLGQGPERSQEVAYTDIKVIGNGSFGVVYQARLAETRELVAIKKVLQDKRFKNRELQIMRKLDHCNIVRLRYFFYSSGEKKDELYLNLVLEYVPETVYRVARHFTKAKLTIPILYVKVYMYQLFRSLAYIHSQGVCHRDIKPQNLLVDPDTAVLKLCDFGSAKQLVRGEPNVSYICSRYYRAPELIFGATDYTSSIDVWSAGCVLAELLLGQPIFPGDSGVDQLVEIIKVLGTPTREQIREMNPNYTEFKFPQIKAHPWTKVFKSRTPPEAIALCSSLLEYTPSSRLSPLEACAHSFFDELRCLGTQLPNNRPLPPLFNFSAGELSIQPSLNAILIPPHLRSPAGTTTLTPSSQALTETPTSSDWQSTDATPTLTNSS

[2] = target: Glycogen synthase kinase-3 alpha (Homo sapiens, UniProt P49840); test: Inhibition of human GSK-3alpha S449A mutant (2 to end residues) using phospho GS2 peptide as substrate after 40 mins in presence of [gamma-33ATP] by scintillation counting method
Sequence of Glycogen synthase kinase-3 alpha (P49840 whole entry, the tested form may be a part): as the sequence (P49840 whole entry, looked up, stated change not applied) above

GSK-3beta (H350L mutant) = GSK-3beta (H350L mutant) (Homo sapiens, UniProt P49841, H350L); test: Inhibition of human GSK-3beta H350L mutant (2 to end residues) at 10 uM using phospho GS2 peptide as substrate after 40 mins by [gamma-33ATP] radiometric assay relative to control; conditions: human GSK-3beta H350L mutant enzyme (residues 2 to end), probe phospho GS2 peptide
Sequence of GSK-3beta (H350L mutant) (P49841 whole entry, looked up, stated change not applied, the tested form may be a part): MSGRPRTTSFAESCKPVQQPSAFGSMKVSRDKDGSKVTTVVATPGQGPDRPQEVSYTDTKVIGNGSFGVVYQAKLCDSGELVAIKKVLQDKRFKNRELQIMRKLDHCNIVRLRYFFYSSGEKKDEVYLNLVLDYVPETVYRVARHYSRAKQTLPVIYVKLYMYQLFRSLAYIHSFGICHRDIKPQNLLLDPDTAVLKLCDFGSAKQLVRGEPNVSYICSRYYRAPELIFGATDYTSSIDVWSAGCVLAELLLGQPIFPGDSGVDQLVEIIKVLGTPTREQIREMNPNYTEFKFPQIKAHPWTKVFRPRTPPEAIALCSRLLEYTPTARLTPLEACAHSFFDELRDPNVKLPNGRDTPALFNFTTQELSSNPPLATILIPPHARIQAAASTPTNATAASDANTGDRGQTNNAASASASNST

[3] = target: Glycogen synthase kinase-3 beta (Homo sapiens, UniProt P49841, H350L); test: Inhibition of human GSK-3beta H350L mutant (2 to end residues) at 10 uM using phospho GS2 peptide as substrate after 40 mins by [gamma-33ATP] radiometric assay
Sequence of Glycogen synthase kinase-3 beta (P49841 whole entry, looked up, stated change not applied): as the sequence (P49841 whole entry, looked up, stated change not applied, the tested form may be a part) above

## CCCN1C(=O)/C(=C\c2ccc(-c3ccc(Cl)cc3)o2)NC1=S
[1]
  inhibition: 17%

## CC(=O)/N=C1/NC(=O)/C(=C\c2ccc(-c3ccc(C)c(Cl)c3)o2)S1
[1]
  inhibition: 21%

## COc1cc(CNc2ccc(CNc3nc[nH]n3)cc2)ccc1OCC(=O)NC(C)(C)C
[1]
  inhibition: 1%

## COc1ccc([N+](=O)[O-])cc1-c1ccc(/C=C2/SC(=N)NC2=O)o1
[1]
  inhibition: 15%

## O=C(O)CCC(=O)N1N=C(c2c(O)nc3ccc(Cl)cc3c2-c2ccccc2)CC1c1ccco1 (stereo unspecified)
[1]
  inhibition: 67%

## N#Cc1cn(CCCN2CCN(CCCn3cc(C#N)c(=O)[nH]c3=O)CC2)c(=O)[nH]c1=O
[1]
  inhibition: 2%

## O=C(CSc1nc2ccccc2[nH]c1=O)Nc1ccc2c(c1)OCO2
[1]
  inhibition: 2%

## O=C1NC(=S)N/C1=C/c1ccc(Sc2ccc(Cl)cc2)o1
[1]
  inhibition: 23%

## O=C(CSc1nnc(CCc2nnc(SCC(=O)c3ccccc3)[nH]2)[nH]1)c1ccccc1
[1]
  inhibition: 25%

## O=C1N/C(=N/c2ccccc2)S/C1=C/c1ccc(-c2cccc(C(=O)O)c2)o1
[1]
  inhibition: 15%

## N=C1NC(=O)/C(=C\c2ccc(-c3ccc(Cl)c([N+](=O)[O-])c3)o2)S1
[1]
  inhibition: 49%

## O=C1NC(=S)N/C1=C/c1ccc(-c2ccc(Cl)c(Cl)c2)o1
[1]
  inhibition: 65%
[2]
  pIC50: 6.43
GSK-3beta (H350L mutant)
  inhibition at 40 min, 10 µM: 59%
[3]
  pIC50: 6.17

## Cc1cc([N+](=O)[O-])ccc1-c1ccc(/C=C2/SC(=N)NC2=O)o1
[1]
  inhibition: 44%

## O=C(N/N=C/c1cccc(Cl)c1)c1cc(-c2ccc3c4c(cccc24)CC3)[nH]n1
[1]
  inhibition: 52%
[2]
  pIC50: 4.95

## CCCCCSc1nc2c(c(=O)[nH]c(=O)n2C)n1CC(O)COc1ccccc1 (stereo unspecified)
[1]
  inhibition: 25%

## N=C1NC(=O)/C(=C\c2ccc(-c3cccc(Cl)c3)o2)S1
[1]
  inhibition: 94%
[2]
  pIC50: 6.55
GSK-3beta (H350L mutant)
  inhibition at 40 min, 10 µM: 88%
[3]
  pIC50: 6.12

## N=C1NC(=O)/C(=C\c2ccc(-c3cc([N+](=O)[O-])ccc3Cl)o2)S1
[1]
  inhibition: 71%
[2]
  pIC50: 5.57
GSK-3beta (H350L mutant)
  inhibition at 40 min, 10 µM: 65%
[3]
  pIC50: 5.75

## COc1cc([N+](=O)[O-])ccc1-c1ccc(/C=C2/SC(=N)NC2=O)o1
[1]
  inhibition: 29%

## O=C1NC(=S)NC(=O)C1=Cc1ccc(-c2cc(Cl)ccc2Cl)o1
[1]
  inhibition: 26%

## N#Cc1ccccc1-c1ccc(C=C2C(=O)NC(=S)NC2=O)o1
[1]
  inhibition: 14%

## CCCCOC(=O)c1cc(-c2ccc(/C=C3/NC(=S)NC3=O)o2)ccc1Cl
[1]
  inhibition: 65%
[2]
  pIC50: 6.15
GSK-3beta (H350L mutant)
  inhibition at 40 min, 10 µM: 55%
[3]
  pIC50: 5.92

## CC(=O)/N=C1/NC(=O)/C(=C\c2ccc(-c3ccc(F)cc3F)o2)S1
[1]
  inhibition: 15%

## O=C1NC(=S)N/C1=C/c1ccc(-c2cc([N+](=O)[O-])ccc2Cl)o1
[1]
  inhibition: 22%

## N#CC1=C(N)Oc2[nH]nc(-c3cccnc3)c2/C1=C1\C(=O)Nc2ccc(Br)cc21
[1]
  inhibition: 2%

## O=C1NC(=S)N/C1=C/c1ccc(-c2cccc(C(=O)O)c2)o1
[1]
  inhibition: 97%
[2]
  pIC50: 6.84
GSK-3beta (H350L mutant)
  inhibition at 40 min, 10 µM: 96%
[3]
  pIC50: 6.47

## N=C1NC(=O)/C(=C\c2ccc(-c3ccccc3Cl)o2)S1
[1]
  inhibition: 95%
[2]
  pIC50: 6.62
GSK-3beta (H350L mutant)
  inhibition at 40 min, 10 µM: 95%
[3]
  pIC50: 6.25

## CC(=O)c1cn(CCCCCCCCCCn2cc(C(C)=O)c(=O)[nH]c2=O)c(=O)[nH]c1=O
[1]
  inhibition: 13%

## Nc1nc(CCCc2n[nH]c(N)n2)n[nH]1
[1]
  inhibition: 16%

## N=C1NC(=O)/C(=C\c2ccc(-c3cccc(C(=O)O)c3)o2)S1
[1]
  inhibition: 97%
[2]
  pIC50: 6.68
GSK-3beta (H350L mutant)
  inhibition at 40 min, 10 µM: 93%
[3]
  pIC50: 6.51

## NC(=O)CSc1nc2c(N)ncnc2n1Cc1ccccc1
[1]
  inhibition: -10%

## CN1C(=N)NC(=O)/C1=C\c1ccc(-c2ccc(F)cc2)o1
[1]
  inhibition: 81%
[2]
  pIC50: 5.87
GSK-3beta (H350L mutant)
  inhibition at 40 min, 10 µM: 78%
[3]
  pIC50: 5.72

## COc1cc(/C=C2/C(=O)NC(=O)N(c3ccccc3)C2=O)ccc1O
[1]
  inhibition: 14%

## Cc1ccccc1OCC(=O)Nc1ccc(Oc2ccc3c(c2)C(=O)NC3=O)cc1
[1]
  inhibition: 54%
[2]
  pIC50: 4.99

## O=C1NC(=O)C(c2cnc3ccccn23)=C1c1cn2c3c(cc(F)cc13)CN(C(=O)N1CCCCC1)CC2 [LY-2090314]
[1]
  inhibition: 99%
[2]
  pIC50: 8.99
GSK-3beta (H350L mutant)
  inhibition at 40 min, 10 µM: 97%
[3]
  pIC50: 8.89

## Cc1c(-c2ccc(/C=C3/SC(=N)NC3=O)o2)ccc([N+](=O)[O-])c1C
[1]
  inhibition: 64%
[2]
  pIC50: 6.64
GSK-3beta (H350L mutant)
  inhibition at 40 min, 10 µM: 66%
[3]
  pIC50: 6.24

## CCN1C(=O)/C(=C\c2ccc(-c3ccc(Cl)cc3Cl)o2)NC1=S
[1]
  inhibition: 26%

## N=C1NC(=O)/C(=C\c2ccc(-c3ccc(Cl)cc3Cl)o2)S1
[1]
  inhibition: 82%
[2]
  pIC50: 5.73
GSK-3beta (H350L mutant)
  inhibition at 40 min, 10 µM: 93%
[3]
  pIC50: 5.92

## O=C(O)CCC(=O)N1N=C(c2c(-c3ccccc3)c3cc(Cl)ccc3[nH]c2=O)CC1c1ccco1 (stereo unspecified)
[2]
  pIC50: 4.89

## Cc1ccc(Cl)cc1-c1ccc(/C=C2/S/C(=N\c3ccccc3)NC2=O)o1
[1]
  inhibition: 0%

## O=C1NC(=S)N/C1=C/c1ccc(-c2ccc(C(=O)O)cc2)o1
[1]
  inhibition: 97%
[2]
  pIC50: 6.51
GSK-3beta (H350L mutant)
  inhibition at 40 min, 10 µM: 91%
[3]
  pIC50: 6.13

## CCOc1c(/C=C2/SC(=O)NC2=O)cccc1OC
[1]
  inhibition: 54%
[2]
  pIC50: 4.77

## O=C1NC(=S)N/C1=C/c1ccc(-c2ccc([N+](=O)[O-])cc2)o1
[1]
  inhibition: 88%
[2]
  pIC50: 6.39
GSK-3beta (H350L mutant)
  inhibition at 40 min, 10 µM: 72%
[3]
  pIC50: 6.23

## Cc1ccc(-c2ccc(/C=C3/SC(=N)NC3=O)o2)cc1Cl
[1]
  inhibition: 81%
[2]
  pIC50: 6.52
GSK-3beta (H350L mutant)
  inhibition at 40 min, 10 µM: 77%
[3]
  pIC50: 5.84

## O=C(N/N=C/c1cccnc1)c1cc(-c2cccc3ccccc23)n[nH]1
[1]
  inhibition: 12%

## CC(=O)/N=C1/NC(=O)/C(=C\c2ccc(-c3ccc(C(=O)O)cc3)o2)S1
[1]
  inhibition: 86%
[2]
  pIC50: 6.25
GSK-3beta (H350L mutant)
  inhibition at 40 min, 10 µM: 72%
[3]
  pIC50: 5.43

## Cc1ccc(OCc2n[nH]c(Nc3ccccc3)n2)cc1
[1]
  inhibition: 5%

## Cc1[nH]nc2c1C(c1ccnc3ccccc13)C(C#N)=C(N)O2 (stereo unspecified)
[1]
  inhibition: 6%

## CC1=NN(c2cccc(C(=O)O)c2)C(=O)/C1=C\c1ccc(-c2ccc3c(c2)C(=O)NC3=O)o1
[1]
  inhibition: 58%
[2]
  pIC50: 5.21

## CN1C(=O)/C(=C\c2ccc(-c3cccc(Cl)c3)o2)N(C)C1=S
[1]
  inhibition: 13%

## COc1ccc(-c2ccc(CNc3n[nH]c(C)n3)o2)cc1Cl
[1]
  inhibition: 8%

## N=C1NC(=O)/C(=C\c2ccc(-c3ccc([N+](=O)[O-])cc3Cl)o2)S1
[1]
  inhibition: 20%

## O=C1N/C(=N/c2ccccc2)S/C1=C/c1ccc(Sc2ccc(Cl)cc2)o1
[1]
  inhibition: 47%

## CC(=O)/N=C1/NC(=O)/C(=C\c2ccc(-c3ccccc3C(=O)O)o2)S1
[1]
  inhibition: 11%

## CCN1C(=O)/C(=C\c2ccc(-c3ccc(C(=O)O)cc3)o2)N(CC)C1=S
[1]
  inhibition: 38%

## O=C1N/C(=N/c2ccccc2)S/C1=C/c1ccco1
[1]
  inhibition: 21%

## O=C(COC(=O)c1cc(O)nc2ccccc12)c1cccc2ccccc12
[1]
  inhibition: 2%

## COc1ccc(-c2n[nH]cc2/C=N\NC(=O)c2ccccc2I)cc1OC
[1]
  inhibition: 44%

## Cc1cc(C)cc(/N=C2/NC(=O)/C(=C\c3ccc(-c4cccc(Cl)c4)o3)S2)c1
[1]
  inhibition: 10%

## Cc1ccc(-c2ccc(/C=C3/NC(=S)NC3=O)o2)cc1Cl
[1]
  inhibition: 76%
[2]
  pIC50: 6.04
GSK-3beta (H350L mutant)
  inhibition at 40 min, 10 µM: 72%
[3]
  pIC50: 5.89

## COc1ccc([N+](=O)[O-])cc1-c1ccc(/C=C2/S/C(=N\C(C)=O)NC2=O)o1
[1]
  inhibition: 9%

## O=C1NC(=O)N(c2ccc(Br)cc2)C(=O)/C1=C\NCCc1c[nH]c2ccccc12
[1]
  inhibition: 66%
[2]
  pIC50: 5.34

## COc1cc(CNc2nn[nH]n2)ccc1OCC(N)=O
[1]
  inhibition: 1%

## CCCOC(=O)c1cc(-c2ccc(/C=C3/NC(=S)NC3=O)o2)ccc1Cl
[1]
  inhibition: 88%
[2]
  pIC50: 6.80
GSK-3beta (H350L mutant)
  inhibition at 40 min, 10 µM: 81%
[3]
  pIC50: 6.39

## NS(=O)(=O)c1ccc(N/C=C2/C(=O)NC(=O)N(c3ccccc3)C2=O)cc1
[1]
  inhibition: 17%

## O=C1N/C(=N/Cc2ccccc2)S/C1=C/c1ccc(-c2ccccc2)o1
[1]
  inhibition: 30%

## O=C1NC(=S)N/C1=C/c1ccc(-c2ccccc2Cl)o1
[1]
  inhibition: 84%
[2]
  pIC50: 6.22
GSK-3beta (H350L mutant)
  inhibition at 40 min, 10 µM: 86%
[3]
  pIC50: 6.04

## COC(=O)c1ccc(-c2ccc(/C=C3\C(=O)NC(=N)N3C)o2)cc1
[1]
  inhibition: 32%

## O=C1NC(=S)N/C1=C/c1ccc(-c2c(Br)cc([N+](=O)[O-])cc2Br)o1
[1]
  inhibition: 42%

## COc1ccc(CNc2cc(-c3ccco3)n[nH]2)cc1
[1]
  inhibition: 1%

## Cc1ccc(-c2ccc(/C=C3/SC(=N)NC3=O)o2)c([N+](=O)[O-])c1
[1]
  inhibition: 85%
[2]
  pIC50: 6.79
GSK-3beta (H350L mutant)
  inhibition at 40 min, 10 µM: 89%
[3]
  pIC50: 6.49

## Cc1ccc(SCc2[nH]nc3c2C(c2ccnc4ccccc24)C(C#N)=C(N)O3)cc1 (stereo unspecified)
[1]
  inhibition: 2%

## O=C(O)c1cc(NS(=O)(=O)c2ccc3c4c(cccc24)C(=O)N3)ccc1O
[1]
  inhibition: 15%

## NC1=NC(=O)/C(=C\c2ccc(-c3ccccc3[N+](=O)[O-])o2)S1
[1]
  inhibition: 91%
[2]
  pIC50: 5.55
GSK-3beta (H350L mutant)
  inhibition at 40 min, 10 µM: 82%
[3]
  pIC50: 5.60

## O=C1N/C(=N/c2ccccc2)S/C1=C/c1ccc(-c2ccccc2)o1
[1]
  inhibition: 23%

## Cc1c(Cl)cccc1-c1ccc(CNc2nc[nH]n2)o1
[1]
  inhibition: 8%

## NC(=O)Cc1nc2sc3c(c2c(=O)[nH]1)CCN(Cc1ccccc1)C3
[1]
  inhibition: -1%
